Data reported in PubChem BioAssay (NCI).
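In this assay, cells in 96-well plates receive the compound at five concentrations for 48 hours. Endpoints are linearly interpolated between the surrounding concentrations. Definition used: TGI = concentration required for complete inhibition of growth.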

Key:
Assay in all cases: NCI anticancer screen, dose series, 48 h
HOP-18 NSCLC = system: HOP-18 NSCLC
DMS 114 small cell lung = system: DMS 114 small cell lung
DLD-1 colon = system: DLD-1 colon
M19-MEL melanoma = system: M19-MEL melanoma
DMS 273 small cell lung = system: DMS 273 small cell lung
XF 498 CNS = system: XF 498 CNS
RXF-631 renal = system: RXF-631 renal

## c1ccc2c(c1)OCCOCCOc1ccccc1OCCO2
HOP-18 NSCLC
  TGI: > 100 µM
DMS 114 small cell lung
  TGI: > 100 µM
DLD-1 colon
  TGI: > 100 µM
M19-MEL melanoma
  TGI: > 100 µM
DMS 273 small cell lung
  TGI: > 100 µM

## CC(=O)OC(CCC1(C)OC1COc1ccc(CCNC(=O)C=C(C)C)cc1)C(C)(C)OC(C)=O (stereo unspecified)
HOP-18 NSCLC
  TGI: > 100 µM
XF 498 CNS
  TGI: 86.3 µM
DMS 114 small cell lung
  TGI: 48.7 µM
M19-MEL melanoma
  TGI: > 100 µM
DMS 273 small cell lung
  TGI: > 100 µM

## Nc1c(S(=O)(=O)c2ccccc2)c2nc3ccccc3nc2n2c1nc1ccccc12
XF 498 CNS
  TGI: > 44.5 µM
DMS 114 small cell lung
  TGI: > 100 µM
DLD-1 colon
  TGI: > 100 µM
RXF-631 renal
  TGI: 47.5 µM
M19-MEL melanoma
  TGI: > 100 µM
DMS 273 small cell lung
  TGI: > 71.9 µM

## Cc1ccc(C(=O)NCc2ccccc2)cc1N=NN(C)C
DLD-1 colon
  TGI: > 100 µM
M19-MEL melanoma
  TGI: > 100 µM
DMS 273 small cell lung
  TGI: > 100 µM

## CCCCCCCCCCCC(=O)OC[C@@H](C[As](=O)(O)O)OC(=O)CCCCCCCCCCC
HOP-18 NSCLC
  TGI: 27.7 µM
XF 498 CNS
  TGI: 29 µM
DMS 114 small cell lung
  TGI: 4.54 µM
DLD-1 colon
  TGI: 33.3 µM
M19-MEL melanoma
  TGI: 19.4 µM
DMS 273 small cell lung
  TGI: 12.3 µM

## CC(=O)O[C@]12CCCCCC1C1(O)C(O)CCCCC12 (stereo partly specified)
XF 498 CNS
  TGI: > 100 µM
DMS 114 small cell lung
  TGI: > 100 µM
M19-MEL melanoma
  TGI: > 100 µM
DMS 273 small cell lung
  TGI: > 100 µM

## Cc1ccc(NC(=O)C(=O)C2C(=O)NC(=O)NC2=O)cc1C
HOP-18 NSCLC
  TGI: > 100 µM
XF 498 CNS
  TGI: > 100 µM
DLD-1 colon
  TGI: > 100 µM
M19-MEL melanoma
  TGI: > 100 µM
DMS 273 small cell lung
  TGI: > 100 µM

## CN(C)CCCNc1ccc2ncn3c4ccc(O)cc4c(=O)c1c23
HOP-18 NSCLC
  TGI: 27.4 µM
XF 498 CNS
  TGI: 19.6 µM
DMS 114 small cell lung
  TGI: 16.7 µM
DLD-1 colon
  TGI: 16.5 µM
RXF-631 renal
  TGI: 12.2 µM
M19-MEL melanoma
  TGI: 15.3 µM
DMS 273 small cell lung
  TGI: 12.1 µM
